In patent US8916599B2, “1H-benz imidazole-5-carboxamides as anti-inflammatory agents” (Orexo AB, priority 2008, dated 2014):

Target: T1, recombinant human mPGES-1 (Homo sapiens, UniProt O14684)
T1 construct: made in house; host or cells: Rosetta E. coli (microsomal/membrane fraction)
T1 sequence (O14684 1-152): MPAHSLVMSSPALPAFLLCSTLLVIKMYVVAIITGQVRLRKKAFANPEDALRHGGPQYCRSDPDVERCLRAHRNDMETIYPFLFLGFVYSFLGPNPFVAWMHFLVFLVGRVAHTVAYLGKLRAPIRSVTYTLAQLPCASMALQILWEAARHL
Test: mPGES-1 inhibition test (microsomes, PGH2 substrate, HTRF detection of PGE2)
Assay type: biochemical
Details: inhibition of mPGES-1 at 10 μM
Outline: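 E. coli microsomal enzyme, 0.1 M KPi pH 7.4 + 2.5 mM GSH; cpd (DMSO) 25 min RT; PGH2 1 min; acidic FeCl2 stop. Dilute 750-fold, HTRF (d2/Eu-cryptate anti-PGE2, overnight 4 °C), 665/620 ratio vs PGE2 standard curve.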

| inhibition at 10 µM [%] | Structure (SMILES) |
| --- | --- |
| 100 | CC(C)(C)[C@H]1CC[C@H](NC(=O)c2cc3nc(Nc4c(Cl)cccc4Cl)[nH]c3cc2F)CC1 [Example 356, N-((1r,4r)-4-tert.-Butylcyclohexyl)-2-(2,6-dichlorophenylamino)-6-fluoro-1H-benzimidazole-5-carboxamide] |
| 100 | CC(C)(C)[C@H]1CC[C@H](NC(=O)c2cc3nc(Nc4c(F)cccc4Cl)[nH]c3cc2F)CC1 [Example 357, N-((1r,4r)-4-tert.-Butylcyclohexyl)-2-(2-chloro-6-fluorophenylamino)-6-fluoro-1H-benzimidazole-5-carboxamide] |
| 100 | Cn1c(Nc2c(F)cccc2C(F)(F)F)nc2cc(C(=O)Nc3ccc(Br)cc3)ccc21 [Example 358, N-(4-Bromophenyl)-2-(2-fluoro-6-trifluoromethyl-phenylamino)-1-methyl-1H-benzimidazole-5-carboxamide] |
| 100 | COc1cc2c(cc1C(=O)Nc1ccc(Br)cc1)nc(Nc1c(Cl)cccc1Cl)n2C [Example 359, 2-(2,6-Dichlorophenylamino)-6-methoxy-1-methyl-N-(4-bromo-phenyl)-1H-benzimidazole-5-carboxamide] |
| 100 | CCC1CCC(NC(=O)c2cc3nc(Nc4c(F)cccc4Cl)n(C)c3cc2F)CC1 (stereo not shown) [Example 362, N-(4-Ethylcyclohexyl)-2-(2-chloro-6-fluorophenylamino)-6-fluoro-1-methyl-1H-benzimidazole-5-carboxamide] |
| 100 | COc1cc2c(cc1C(=O)NCc1ncccc1C1CC1)nc(Nc1c(Cl)cccc1Cl)n2C [Example 367, N-((3-Cyclopropylpyridin-2-yl)-methyl)-2-(2,6-dichlorophenylamino)-6-methoxy-1-methyl-1H-benzimidazole-5-carboxamide] |
| 100 | CC(C)[C@H]1CC[C@H](NC(=O)c2cc3nc(Nc4c(F)cccc4Cl)n(C)c3cc2F)CC1 [Example 368] |
| 100 | COc1cc2c(cc1C(=O)N[C@H]1CC[C@H](C(F)(F)F)CC1)nc(Nc1c(Cl)cccc1Cl)n2C [Example 369, 2-(2,6-Dichlorophenylamino)-6-methoxy-1-methyl-N-((1r,4r)-4-trifluoromethyl-cyclohexyl)-1H-benzimidazole-5-carboxamide] |
| 100 | COc1cc2c(cc1C(=O)NCc1ncccc1C(F)(F)F)nc(Nc1c(Cl)cccc1Cl)n2C [Example 370, 2-(2,6-Dichlorophenylamino)-6-methoxy-1-methyl-N-((3-trifluoromethyl-pyridin-2-yl)methyl)-1H-benzimidazole-5-carboxamide] |
| 100 | COc1cc2[nH]c(Nc3c(Cl)cccc3Cl)nc2cc1C(=O)Nc1ccc(Br)cc1 [Example 371, N-(4-Bromophenyl)-2-(2,6-dichlorophenylamino)-6-methoxy-1H-benzimidazole-5-carboxamide] |
| 98 | Cc1cnc(NC(=O)c2cc3nc(Nc4c(Cl)cccc4Cl)n(C)c3cc2F)cc1Cl [Example 372, N-(4-Chloro-5-methylpyridin-2yl)-2-(2,6-dichlorophenylamino)-6-fluoro-1-methyl-1H-benzimidazole-5-carboxamide] |
| 100 | CCCCCCNC(=O)c1cc2nc(Nc3c(Cl)cccc3Cl)n(C)c2cc1F [Example 373, 2-(2,6-Dichlorophenylamino)-6-fluoro-N-hexyl-1-methyl-1H-benzimidazole-5-carboxamide] |
| 100 | CC(C)(C)[C@H]1CC[C@@H](NC(=O)c2cc3nc(Nc4c(Cl)cccc4Cl)[nH]c3cc2F)CC1 [Example 374, N-((1s,4s)-4-tert.-Butylcyclohexyl)-2-(2,6-dichlorophenylamino)-6-fluoro-1H-benzimidazole-5-carboxamide] |
| 100 | CC(C)[C@H]1CC[C@H](NC(=O)c2cc3nc(Nc4c(Cl)cccc4Cl)[nH]c3cc2F)CC1 [Example 375] |
| 100 | COc1cc2[nH]c(Nc3c(Cl)cccc3Cl)nc2cc1C(=O)N[C@H]1CC[C@H](C(F)(F)F)CC1 [Example 376, 2-(2,6-Dichlorophenylamino)-6-methoxy-N-((1r,4r)-4-trifluoromethyl-cyclohexyl)-1H-benzimidazole-5-carboxamide] |

Second part, the compound before the results:

| Structure (SMILES) | inhibition at 10 µM [%] |
| --- | --- |
| O=C(NCc1ccc(Cl)cc1)c1ccc2[nH]c(Nc3c(Cl)cccc3Cl)nc2c1 [Example 309, 2-(2,6-Dichloro-phenylamino)-1H-benzimidazole-5-carboxylic acid 4-chloro-benzylamide] | 98 |
| O=C(Nc1ccc(Cl)c(Cl)c1Cl)c1ccc2[nH]c(Nc3c(Cl)cccc3Cl)nc2c1 [Example 312, 2-(2,6-Dichloro-phenylamino)-1H-benzimidazole-5-carboxylic acid (2,3,4-trichloro-phenyl)-amide] | 100 |
| O=C(Nc1c(Cl)cc(Cl)cc1Cl)c1ccc2[nH]c(Nc3c(Cl)cccc3Cl)nc2c1 [Example 313, 2-(2,6-Dichloro-phenylamino)-1H-benzimidazole-5-carboxylic acid (2,4,6-trichloro-phenyl)-amide] | 99 |
| Cc1cc2nc(NC(=O)c3ccc4[nH]c(Nc5c(Cl)cccc5Cl)nc4c3)[nH]c2cc1C [Example 314, 2-(2,6-Dichloro-phenylamino)-1H-benzimidazole-5-carboxylic acid (5,6-dimethyl-1H-benzimidazol-2-yl)-amide] | 97 |
| Cn1c(Nc2c(Cl)cccc2Cl)nc2cc(C(=O)Nc3ccc(Br)cc3)ccc21 [Example 316, 2-(2,6-Dichloro-phenylamino)-1-methyl-1H-benzimidazole-5-carboxylic acid (4-bromo-phenyl)-amide] | 100 |
| Cn1c(Nc2ccccc2OC(F)(F)F)nc2cc(C(=O)Nc3ccc(Br)cc3)ccc21 [Example 320, 1-Methyl-2-(2-trifluoromethoxy-phenylamino)-1H-benzimidazole-5-carboxylic acid (4-bromo-phenyl)-amide] | 100 |
| Cc1ccc(NC(=O)c2ccc3[nH]c(Nc4c(Cl)cccc4Cl)nc3c2)nc1 [Example 321, 2-(2,6-Dichloro-phenylamino)-1H-benzimidazole-5-carboxylic acid (5-methyl-pyridin-2-yl)-amide] | 93 |
| Cc1ccc(Cl)c(Nc2nc3cc(C(=O)Nc4ccc(Br)cc4)ccc3[nH]2)c1Cl [Example 322, 2-(2,6-Dichloro-3-methyl-phenylamino)-1H-benzimidazole-5-carboxylic acid (4-bromo-phenyl)-amide] | 100 |
| Cn1c(Nc2c(Cl)cccc2Cl)nc2cc(C(=O)NC3CCCCC3)cc(Br)c21 [Example 326, 7-Bromo-2-(2,6-dichloro-phenylamino)-1-methyl-1H-benzimidazole-5-carboxylic acid cyclohexylamide] | 96 |
| Cc1ccc(NC(=O)c2ccc3c(c2)nc(Nc2c(Cl)cccc2Cl)n3C)nc1 [Example 327, 2-(2,6-Dichloro-phenylamino)-1-methyl-1H-benzimidazole-5-carboxylic acid (5-methyl-pyridin-2-yl)-amide] | 100 |
| N#Cc1ccc(NC(=O)c2ccc3[nH]c(Nc4c(Cl)cccc4Cl)nc3c2)nc1 [Example 329, 2-(2,6-Dichloro-phenylamino)-1H-benzimidazole-5-carboxylic acid (5-cyano-pyridin-2-yl)-amide] | 89 |
| O=C(Nc1ccc(Br)cc1)c1ccc2[nH]c(Nc3cccc(Cl)c3C(F)(F)F)nc2c1 [Example 333, 2-(3-Chloro-2-trifluoromethyl-phenylamino)-1H-benzimidazole-5-carboxylic acid (4-bromo-phenyl)-amide] | 94 |
| Cc1cccnc1NC(=O)c1ccc2c(c1)nc(Nc1c(Cl)cccc1Cl)n2C [Example 341, 2-(2,6-Dichloro-phenylamino)-1-methyl-1-H-benzimidazole-5-carboxylic acid (3-methyl-pyridin-2-yl)-amide] | 92 |
| Cn1c(Nc2c(Cl)cccc2Cl)nc2cc(C(=O)Nc3cccc(Cl)n3)ccc21 [Example 347, 2-(2,6-Dichloro-phenylamino)-1-methyl-1H-benzimidazole-5-carboxylic acid (6-chloro-pyridin-2-yl)-amide] | 100 |
| CCCCOc1cccc(NC(=O)c2ccc3c(c2)nc(Nc2c(Cl)cccc2Cl)n3C)n1 [Example 349, 2-(2,6-Dichloro-phenylamino)-1-methyl-1-H-benzimidazole-5-carboxylic acid (6-butoxy-pyridin-2-yl)-amide] | 100 |
| CCNC(=O)c1cc(Br)c2c(c1)nc(Nc1c(Cl)cccc1Cl)n2C [Example 352, 7-Bromo-2-(2,6-dichloro-phenylamino)-1-methyl-1H-benzimidazole-5-carboxylic acid ethylamide] | 71 |
| CC(C)NC(=O)c1cc(Br)c2c(c1)nc(Nc1c(Cl)cccc1Cl)n2C [Example 353, 7-Bromo-2-(2,6-dichloro-phenylamino)-1-methyl-1H-benzimidazole-5-carboxylic acid isopropylamide] | 75 |
| Cn1c(Nc2c(F)cccc2Cl)nc2cc(C(=O)NC3CCC(C(C)(C)C)CC3)c(F)cc21 (stereo not shown) [Example 354, N-(4-tert.-Butylcyclohexyl)-2-(2-chloro-6-fluorophenylamino)-6-fluoro-1-methyl-1H-benzimidazole-5-carboxamide] | 100 |
| Cn1c(Nc2c(Cl)cccc2Cl)nc2cc(C(=O)NC3CCCC(C)(C)C3)c(F)cc21 (stereo not shown) [Example 355, 2-(2,6-Dichlorophenylamino)-N-(3,3-dimethylcyclohexyl)-6-fluoro-1-methyl-1H-benzimidazole-5-carboxamide] | 100 |
